Source: article PMC3145798, “The Extracytoplasmic Domain of the Mycobacterium tuberculosis Ser/Thr Kinase PknB Binds Specific Muropeptides and Is Required for PknB Localization” (PLoS Pathogens, 2011)
pKd: −log10 of the molar value. “Also recorded” adds a separate entry of the source. *1 amine or outer side, *2 acyl side, *3 side chain or, on linkers, in order; H or OH if unused. Where a SMILES comes first, the peptide text is derived from it. [ ]: non-standard residue; d: D form. Mur = C[C@@H](O[C@H]1[C@H](O)[C@@H](CO)OC(O)[C@@H]1N[*:1])C(=O)[*:2]; d(isoGln) = NC(=O)[C@@H](CCC(=O)[*:2])N[*:1]

How the values were obtained:
[1] = target: T1, extracytoplasmic domain of M. tuberculosis PknB (ED-PknB, PASTA domains) (Mycobacterium tuberculosis, UniProt P9WI81); experiment: Surface plasmon resonance (Biacore) binding of synthetic muropeptides to immobilized ED-PknB; parameters: ka1: unit not given here; conditions: for decrease in binding compared to compound 6a: ratio of affinities relative to 6a; for ka1 / ka2 / kd1 / kd2: 25°C
T1 construct: GST (N, cleaved yes); made in house; host or cells: Escherichia coli BL21 (DE3)
T1 sequence (P9WI81 354-626): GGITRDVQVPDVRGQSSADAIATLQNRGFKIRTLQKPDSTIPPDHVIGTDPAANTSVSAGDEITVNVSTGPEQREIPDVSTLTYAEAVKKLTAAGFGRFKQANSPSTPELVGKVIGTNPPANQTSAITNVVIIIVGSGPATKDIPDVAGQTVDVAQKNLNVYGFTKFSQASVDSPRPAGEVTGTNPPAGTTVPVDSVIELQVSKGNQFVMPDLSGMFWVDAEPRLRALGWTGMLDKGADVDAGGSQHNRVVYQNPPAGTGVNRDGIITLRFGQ

[2] = tested on: dormant M. tuberculosis H37Rv cells; experiment: Dormancy and resuscitation assay (most probable number); assay type: cell-based, Mycobacterium tuberculosis H37Rv; conditions: for Fold increase in viable cell number relative to cultures grown in Sauton's medium without additive: muropeptide at 10 times the KD of 6c, spent medium 50%, MPN after 2 months at 37°C; for increase in viability relative to cells in fresh medium alone: two independent experiments (6 or 9 months hypoxic), experiment not assigned, most probable number analysis
[3] = Table S1, SPR, two-state binding model
[4] = SPR Biacore T100, ED-PknB on CM-5 chip (5,000 RU), HBS-EP pH 7.4, 25°C, two-state binding model, Table 1 and text
[5] = Table S1, SPR, ED-PknB on CM-5 chip (5,000 RU), two-state binding model
[6] = Experiment 1: 6 month old dormant culture
[7] = Experiment 2: 9 month old dormant culture

SMILES: CC(=O)N[C@H]1C(O)O[C@H](CO)[C@@H](O)[C@@H]1O[C@H](C)C(=O)N[C@@H](C)C(=O)N[C@H](CCC(=O)N[C@@H](CCC[C@@H](N)C(=O)O)C(=O)N[C@H](C)C(=O)N[C@H](C)C(N)=O)C(N)=O (some centres unmarked) [MPP-DAP (amide/acid) 7]
- decrease in binding compared to compound 6a ([1]; SPR): about two-fold
- ka1 [1, 3]: 4316
- ka2 [1, 3]: 1.4 10^-3 s^-1
- kd1 [1, 3]: 161.5 10^-3 s^-1
- kd2 [1, 3]: 2.8 10^-3 s^-1

SMILES: CC(=O)N[C@H]1C(O)O[C@H](CO)[C@@H](O)[C@@H]1O[C@H](C)C(=O)N[C@@H](C)C(=O)N[C@H](CCC(=O)N[C@@H](CCCCN)C(=O)N[C@H](C)C(=O)N[C@H](C)C(N)=O)C(N)=O (stereo partly drawn) [MPP-Lys (D-Ala) 3a] (Ac-[Mur]A[d(isoGln)]K[dA][dA]-NH2)
- pKd [1, 4]: < 3.30
- pKd [1, 5]: < 3.30

SMILES: CC(=O)N[C@H]1C(O)O[C@H](CO)[C@@H](O)[C@@H]1O[C@H](C)C(=O)N[C@@H](C)C(=O)N[C@H](CCC(=O)N[C@@H](CCCCN)C(=O)N[C@H](C)C(=O)NCC(N)=O)C(N)=O (some centres unmarked) [MPP-Lys (Gly) 3b] (Ac-[Mur]A[d(isoGln)]K[dA]G-NH2)
- pKd [1, 4]: < 3.30
- pKd [1, 5]: < 3.30
- Fold increase in viable cell number relative to cultures grown in Sauton's medium without additive [2, 6]: 0.9 fold
- Fold increase in viable cell number relative to cultures grown in Sauton's medium without additive [2, 7]: 1 fold
- increase in viability relative to cells in fresh medium alone [2]: No increase in viability

SMILES: CC(=O)N[C@H]1C(O)O[C@H](CO)[C@@H](O)[C@@H]1O[C@H](C)C(=O)N[C@@H](C)C(=O)N[C@H](CCC(=O)N[C@@H](CCC[C@@H](N)C(=O)O)C(N)=O)C(N)=O (some centres unmarked) [MTP-DAP (amide/acid) 5]
- ka1 [1, 3]: 5577
- ka2 [1, 3]: 1.64 10^-3 s^-1
- kd1 [1, 3]: 172.9 10^-3 s^-1
- kd2 [1, 3]: 3.86 10^-3 s^-1

SMILES: CC(=O)N[C@H]1C(O)O[C@H](CO)[C@@H](O)[C@@H]1O[C@H](C)C(=O)N[C@@H](C)C(=O)N[C@H](CCC(=O)N[C@@H](CCCCN)C(N)=O)C(N)=O (some centres unmarked) [MTP-Lys (amide) 1]
- pKd [1, 4]: < 3.30
- pKd [1, 5]: < 3.30

SMILES: CC(=O)N[C@H]1C(O)O[C@H](CO)[C@@H](O)[C@@H]1O[C@H](C)C(=O)N[C@@H](C)C(=O)N[C@H](CCC(=O)N[C@@H](CCC[C@@H](N)C(=O)O)C(=O)N[C@H](C)C(N)=O)C(=O)O (some centres unmarked) [MTrP-DAP (acid/acid) 6d]
- decrease in binding compared to compound 6a ([1]; SPR): four-fold
- ka1 [1, 3]: 1931
- ka2 [1, 3]: 2.0 10^-3 s^-1
- kd1 [1, 3]: 168.7 10^-3 s^-1
- kd2 [1, 3]: 3.2 10^-3 s^-1

SMILES: CC(=O)N[C@H]1C(O)O[C@H](CO)[C@@H](O)[C@@H]1O[C@H](C)C(=O)N[C@@H](C)C(=O)N[C@H](CCC(=O)N[C@@H](CCCC(N)C(N)=O)C(=O)N[C@H](C)C(N)=O)C(=O)O (some centres unmarked) [MTrP-DAP (acid/amide) 6b]
- binding to ED-PknB in words ([1]; SPR): did not show measurable binding
- pKd [1, 4]: < 4.00
- pKd [1, 5]: < 4.00

SMILES: CC(=O)N[C@H]1C(O)O[C@H](CO)[C@@H](O)[C@@H]1O[C@H](C)C(=O)N[C@@H](C)C(=O)N[C@H](CCC(=O)N[C@@H](CCC[C@@H](N)C(=O)O)C(=O)N[C@H](C)C(N)=O)C(N)=O (some centres unmarked) [MTrP-DAP (amide/acid) 6a]
- binding to ED-PknB in words ([1]; SPR): exhibited the highest affinity
- ka1 [1, 3]: 3451
- ka2 [1, 3]: 1.83 10^-3 s^-1
- kd1 [1, 3]: 100.7 10^-3 s^-1
- kd2 [1, 3]: 1.4 10^-3 s^-1

SMILES: CC(=O)N[C@H]1C(O)O[C@H](CO)[C@@H](O)[C@@H]1O[C@H](C)C(=O)N[C@@H](C)C(=O)N[C@H](CCC(=O)N[C@@H](CCC[C@@H](N)C(N)=O)C(=O)N[C@H](C)C(N)=O)C(N)=O (some centres unmarked) [MTrP-DAP (amide/amide) 6c]
- Kd [1, 5]: 14.9 µM
- ka1 [1, 3]: 342.8
- ka2 [1, 3]: 41.5 10^-3 s^-1
- kd1 [1, 3]: 57.8 10^-3 s^-1
- kd2 [1, 3]: 4.02 10^-3 s^-1
- Fold increase in viable cell number relative to cultures grown in Sauton's medium without additive [2, 6]: 9 fold
- Fold increase in viable cell number relative to cultures grown in Sauton's medium without additive [2, 7]: 3 fold
- increase in viability relative to cells in fresh medium alone [2]: three; also recorded: nine-fold

SMILES: CC(=O)N[C@H](CCC[C@H](NC(=O)CC[C@@H](NC(=O)[C@H](C)NC(=O)[C@@H](C)O[C@H]1[C@H](O)[C@@H](CO)OC(O)[C@@H]1NC(C)=O)C(N)=O)C(=O)N[C@H](C)C(N)=O)C(=O)O (some centres unmarked) [MTrP-DAP(amide/acid)NHAc 6e]
- decrease in binding compared to compound 6a ([1]; SPR): six-fold
- ka1 [1, 3]: 354.2
- ka2 [1, 3]: 6.6 10^-3 s^-1
- kd1 [1, 3]: 106 10^-3 s^-1
- kd2 [1, 3]: 2.2 10^-3 s^-1

SMILES: CC(=O)NCCCC[C@H](NC(=O)CC[C@@H](NC(=O)[C@H](C)NC(=O)[C@@H](C)O[C@H]1[C@H](O)[C@@H](CO)OC(O)[C@@H]1NC(C)=O)C(N)=O)C(=O)N[C@H](C)C(N)=O (some centres unmarked) [MTrP-Lys (amide) NHAc 2b]
- pKd [1, 4]: < 3.30
- pKd [1, 5]: < 3.30

SMILES: C[C@H](N)C(=O)N[C@H](CCC(=O)N[C@@H](CCCCN)C(=O)N[C@H](C)C(=O)N[C@H](C)C(N)=O)C(N)=O [Peptide 4 (amide)] (H-A[d(isoGln)]K[dA][dA]-NH2; N-terminus assumed)
- binding to ED-PknB in words ([1]; SPR): Neither compound showed significant interaction

SMILES: CC(=O)N[C@@H](C)C(=O)N[C@H](CCC(=O)N[C@@H](CCCC(N)C(=O)O)C(=O)N[C@H](C)C(=O)N[C@H](C)C(N)=O)C(N)=O (some centres unmarked) [Peptide 8 (amide/amide)]
- binding to ED-PknB in words ([1]; SPR): Neither compound showed significant interaction
- pKd [1, 4]: < 3.30
- pKd [1, 5]: < 3.30
